{"source": "paper PMC8523698", "about": "“Preclinical characterization of an intravenous coronavirus 3CL protease inhibitor for the potential treatment of COVID19” (Nature Communications, 2021)", "key": {"[1]": {"target": "CYP2D6 (Homo sapiens, UniProt P10635)", "sequence (P10635 whole entry)": "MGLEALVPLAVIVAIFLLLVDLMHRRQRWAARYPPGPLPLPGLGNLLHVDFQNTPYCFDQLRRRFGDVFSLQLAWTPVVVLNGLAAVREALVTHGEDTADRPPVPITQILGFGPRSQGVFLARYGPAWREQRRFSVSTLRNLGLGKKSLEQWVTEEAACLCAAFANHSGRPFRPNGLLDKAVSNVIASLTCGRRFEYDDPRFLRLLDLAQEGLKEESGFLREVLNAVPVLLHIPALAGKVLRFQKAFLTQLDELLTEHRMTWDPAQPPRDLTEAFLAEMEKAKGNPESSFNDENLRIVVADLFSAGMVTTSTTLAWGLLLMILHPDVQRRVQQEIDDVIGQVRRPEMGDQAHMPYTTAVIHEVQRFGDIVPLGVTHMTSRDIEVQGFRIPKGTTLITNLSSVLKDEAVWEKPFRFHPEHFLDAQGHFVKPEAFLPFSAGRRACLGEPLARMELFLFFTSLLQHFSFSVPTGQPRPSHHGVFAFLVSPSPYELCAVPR", "assay": "Reversible CYP inhibition in human liver microsomes", "settings": "for activity at 0.214 µM: CYP 2D6, 0.214 µM"}, "[2]": {"assay": "Plasma protein binding by equilibrium dialysis", "settings": "for fraction unbound at 6 h, 5 uM / fraction unbound at 6 h: plasma"}, "[3]": {"target": "CYP3A4/5", "assay": "Time-dependent inhibition of CYP enzymes in human liver microsomes"}}, "note": "Several values for one entry are separate records, joined by “and”; a condition that tells them apart may be missing. Identical values can stand only once."}
{"smiles": "COc1cccc2[nH]c(C(=O)N[C@@H](CC(C)C)C(=O)N[C@@H](C[C@@H]3CCNC3=O)C(=O)CO)cc12", "note": "[PF-00835231]", "values": [{"measurement": "Percent of Control Activity", "setting": "[1]; CYP 2D6, 0.979 µM, 30-Minute Preincubation, 0.979 µM", "value": "107.3% and 99.0%"}, {"measurement": "Percent of Control Activity", "setting": "[1]; CYP 2D6, 0.979 µM, Zero-Minute Preincubation, 0.979 µM", "value": "96.4% and 103.2%"}, {"measurement": "Percent of Control Activity", "setting": "[1]; CYP 2D6, 2.09 µM, 30-Minute Preincubation, 2.09 µM", "value": "102.6% and 103.8%"}, {"measurement": "Percent of Control Activity", "setting": "[1]; CYP 2D6, 2.09 µM, Zero-Minute Preincubation, 2.09 µM", "value": "96.1% and 107.2%"}, {"measurement": "Percent of Control Activity", "setting": "[1]; CYP 2D6, 4.48 µM, 30-Minute Preincubation, 4.48 µM", "value": "102.2% and 99.7%"}, {"measurement": "Percent of Control Activity", "setting": "[1]; CYP 2D6, 4.48 µM, Zero-Minute Preincubation, 4.48 µM", "value": "105.0% and 106.1%"}, {"measurement": "Percent of Control Activity", "setting": "[1]; CYP 2D6, 20.5 µM, 30-Minute Preincubation, 20.5 µM", "value": "113.8% and 117.9%"}, {"measurement": "Percent of Control Activity", "setting": "[1]; CYP 2D6, 20.5 µM, Zero-Minute Preincubation, 20.5 µM", "value": 108.8, "unit": "%"}, {"measurement": "Percent of Control Activity", "setting": "[1]; CYP 2D6, 43.8 µM, 30-Minute Preincubation, 43.8 µM", "value": "122.8% and 114.4%"}, {"measurement": "Percent of Control Activity", "setting": "[1]; CYP 2D6, 43.8 µM, Zero-Minute Preincubation, 43.8 µM", "value": "99.1% and 109.2%"}, {"measurement": "Percent of Control Activity", "setting": "[1]; CYP 2D6, 93.5 µM, 30-Minute Preincubation, 93.5 µM", "value": "122.0% and 119.6%"}, {"measurement": "Percent of Control Activity", "setting": "[1]; CYP 2D6, 93.5 µM, Zero-Minute Preincubation, 93.5 µM", "value": 100.2, "unit": "%"}, {"measurement": "Percent of Control Activity", "setting": "[1]; CYP 2D6, 200 µM, 30-Minute Preincubation, 200 µM", "value": "102.0% and 91.1%"}, {"measurement": "Percent of Control Activity", "setting": "[1]; CYP 2D6, 200 µM, Zero-Minute Preincubation, 200 µM", "value": "73.5% and 82.2%"}, {"measurement": "IC50", "setting": "[1]; human, microsomes, pH 7.4", "value": "> 200", "unit": "µM"}, {"measurement": "activity at 0.1 µM", "setting": "[1]; human, microsomes, pH 7.4, Percent of Control Activity, CYP 2D6, 0.1 µM, 30-Minute Preincubation", "value": 103, "unit": "%"}, {"measurement": "activity at 0.214 µM", "setting": "[1]; human, microsomes, pH 7.4, Percent of Control Activity, 30-Minute Preincubation", "value": 102, "unit": "%"}, {"measurement": "activity at 0.214 µM", "setting": "[1]; human, microsomes, pH 7.4, Percent of Control Activity, Zero-Minute Preincubation", "value": 98.6, "unit": "%"}, {"measurement": "activity at 0.979 µM", "setting": "[1]; human, microsomes, pH 7.4, Percent of Control Activity, CYP 2D6, 0.979 µM, 30-Minute Preincubation", "value": 104, "unit": "%"}, {"measurement": "activity at 0.979 µM", "setting": "[1]; human, microsomes, pH 7.4, Percent of Control Activity, CYP 2D6, 0.979 µM, Zero-Minute Preincubation", "value": 97.7, "unit": "%"}, {"measurement": "activity at 2.09 µM", "setting": "[1]; human, microsomes, pH 7.4, Percent of Control Activity, CYP 2D6, 2.09 µM, 30-Minute Preincubation", "value": 104, "unit": "%"}, {"measurement": "activity at 2.09 µM", "setting": "[1]; human, microsomes, pH 7.4, Percent of Control Activity, CYP 2D6, 2.09 µM, Zero-Minute Preincubation", "value": 99.9, "unit": "%"}, {"measurement": "activity at 4.48 µM", "setting": "[1]; human, microsomes, pH 7.4, Percent of Control Activity, CYP 2D6, 4.48 µM, 30-Minute Preincubation", "value": 109, "unit": "%"}, {"measurement": "activity at 4.48 µM", "setting": "[1]; human, microsomes, pH 7.4, Percent of Control Activity, CYP 2D6, 4.48 µM, Zero-Minute Preincubation", "value": 97.2, "unit": "%"}, {"measurement": "activity at 20.5 µM", "setting": "[1]; human, microsomes, pH 7.4, Percent of Control Activity, CYP 2D6, 20.5 µM, 30-Minute Preincubation", "value": 118, "unit": "%"}, {"measurement": "activity at 20.5 µM", "setting": "[1]; human, microsomes, pH 7.4, Percent of Control Activity, CYP 2D6, 20.5 µM, Zero-Minute Preincubation", "value": 97.6, "unit": "%"}, {"measurement": "activity at 43.8 µM", "setting": "[1]; human, microsomes, pH 7.4, Percent of Control Activity, CYP 2D6, 43.8 µM, 30-Minute Preincubation", "value": 119, "unit": "%"}, {"measurement": "activity at 43.8 µM", "setting": "[1]; human, microsomes, pH 7.4, Percent of Control Activity, CYP 2D6, 43.8 µM, Zero-Minute Preincubation", "value": 101, "unit": "%"}, {"measurement": "activity at 93.5 µM", "setting": "[1]; human, microsomes, pH 7.4, Percent of Control Activity, CYP 2D6, 93.5 µM, 30-Minute Preincubation", "value": 120, "unit": "%"}, {"measurement": "activity at 93.5 µM", "setting": "[1]; human, microsomes, pH 7.4, Percent of Control Activity, CYP 2D6, 93.5 µM, Zero-Minute Preincubation", "value": 91.9, "unit": "%"}, {"measurement": "activity at 200 µM", "setting": "[1]; human, microsomes, pH 7.4, Percent of Control Activity, CYP 2D6, 200 µM, 30-Minute Preincubation", "value": 95.7, "unit": "%"}, {"measurement": "activity at 200 µM", "setting": "[1]; human, microsomes, pH 7.4, Percent of Control Activity, CYP 2D6, 200 µM, Zero-Minute Preincubation", "value": 78.8, "unit": "%"}, {"measurement": "Individual fraction unbound", "setting": "[2]; Monkey Cynomologous plasma, 5.0 uM, replicates Day 1-3", "value": "0.429 and 0.445 and 0.467 and 0.489 and 0.396 and 0.428 and 0.46 and 0.501 and 0.390"}, {"measurement": "fraction unbound at 6 h, 5 uM", "setting": "[2]; cynomolgus monkey, pH 7.4, Individual fraction unbound, Monkey Cynomologous plasma, 5.0 uM, replicates Day 1-3", "value": 0.44}, {"measurement": "fraction unbound at 6 h, 5 uM", "setting": "[2]; monkey, pH 7.4, Fraction unbound, Geomean, Monkey plasma, 5.0 uM, n 12", "value": 0.441}, {"measurement": "fraction unbound at 6 h", "setting": "[2]; monkey, pH 7.4, Plasma fu, Vdss input", "value": 0.441}, {"measurement": "fraction unbound at 6 h", "setting": "[2]; monkey, pH 7.4, Unbound fraction fu (%CV), monkey plasma", "value": 0.441}, {"measurement": "fraction unbound at 6 h, 5 uM", "setting": "[2]; monkey, pH 7.4, fraction unbound Geomean, monkey plasma, 5.0 uM, n=12", "value": 0.441}, {"measurement": "KI ± SE", "setting": "[3]; Midazolam (20 µM)", "value": "163 ± 31", "unit": "µM"}, {"measurement": "KI ± SE", "setting": "[3]; Midazolam (20 µM), listed as PF00835231", "value": 163, "unit": "µM"}, {"measurement": "KI ± SE", "setting": "[3]; Testosterone ([…])", "value": "168 ± 8", "unit": "µM"}, {"measurement": "time-dependent inhibition (TDI) signal", "setting": "[3]; pooled HLM", "value": "weak signal"}]}
